From ChEMBL document CHEMBL1140186, “Hunter-killer peptide (HKP) for targeted therapy” (2008)
Activity calls are given as the source filed them. No cut-off for these calls is given here. Bridge positions count the residues as written; N and C are the ends. Square brackets hold non-standard residues; d marks the D form. Peptide text beside a SMILES is read from it.

Assays:
[1] = test system: Mus musculus; assay: Reduction in epididymal fat pad size in sc dosed high fat diet fed mouse after 4 weeks relative to control; type: functional; parameters: scale not given: the % may be the effect or the level left
[2] = test system: Mus musculus; assay: Induction of weight loss in sc dosed high fat diet fed mouse after 4 weeks; type: functional
[3] = test system: MDA-MB-435; assay: Antitumor activity against human MDA-MB-435 cells xenografted mouse assessed as survival after 120 days; type: functional
[4] = organism: Mus musculus; assay: Increase in survival of transgenic mouse prostate adenocarcinoma model after 6 to 8 weeks; type: functional, organism-based; details: Prostate gland

Compound: CC(C)C[C@@H](NC(=O)[C@@H](CCCCN)NC(=O)CNC(=O)CNC(=O)[C@@H]1CSSC[C@H](N)C(=O)N[C@@H](CCCCN)C(=O)NCC(=O)NCC(=O)N[C@@H](CCCNC(=N)N)C(=O)N[C@@H](C)C(=O)N[C@@H](CCCCN)C(=O)N[C@@H](CC(=O)O)C(=O)N1)C(=O)N[C@H](C)C(=O)N[C@H](CCCCN)C(=O)N[C@H](CC(C)C)C(=O)N[C@H](C)C(=O)N[C@H](CCCCN)C(=O)N[C@H](CCCCN)C(=O)N[C@H](CC(C)C)C(=O)N[C@H](C)C(=O)N[C@H](CCCCN)C(=O)N[C@H](CC(C)C)C(=O)N[C@H](C)C(=O)N[C@H](CCCCN)C(=O)O (H-CKGGRAKDCGG[dK][dL][dA][dK][dL][dA][dK][dK][dL][dA][dK][dL][dA][dK]-OH; disulfide 1-9)
- Activity [1]: >70%
- Activity [2]: 30%

Compound: CC(C)C[C@@H](NC(=O)[C@@H](CCCCN)NC(=O)CNC(=O)CNC(=O)[C@@H]1CSSC[C@H](N)C(=O)N[C@@H](CC(N)=O)C(=O)NCC(=O)N[C@@H](CCCNC(=N)N)C(=O)N1)C(=O)N[C@H](C)C(=O)N[C@H](CCCCN)C(=O)N[C@H](CC(C)C)C(=O)N[C@H](C)C(=O)N[C@H](CCCCN)C(=O)N[C@H](CCCCN)C(=O)N[C@H](CC(C)C)C(=O)N[C@H](C)C(=O)N[C@H](CCCCN)C(=O)N[C@H](CC(C)C)C(=O)N[C@H](C)C(=O)N[C@H](CCCCN)C(=O)O (H-CNGRCGG[dK][dL][dA][dK][dL][dA][dK][dK][dL][dA][dK][dL][dA][dK]-OH; disulfide 1-5)
- Survival [3]: 60%

Compound: CC[C@H](C)[C@H](NC(=O)[C@H](CO)NC(=O)[C@H](CCSC)NC(=O)[C@@H](N)CO)C(=O)N[C@@H](C)C(=O)N[C@@H](CCCNC(=N)N)C(=O)N[C@@H](CC(C)C)C(=O)NCC(=O)NCC(=O)N[C@H](CCCCN)C(=O)N[C@H](CC(C)C)C(=O)N[C@H](C)C(=O)N[C@H](CCCCN)C(=O)N[C@H](CC(C)C)C(=O)N[C@H](C)C(=O)N[C@H](CCCCN)C(=O)N[C@H](CCCCN)C(=O)N[C@H](CC(C)C)C(=O)N[C@H](C)C(=O)N[C@H](CCCCN)C(=O)N[C@H](CC(C)C)C(=O)N[C@H](C)C(=O)N[C@H](CCCCN)C(=O)O (H-SMSIARLGG[dK][dL][dA][dK][dL][dA][dK][dK][dL][dA][dK][dL][dA][dK]-OH)
- Activity [4]: Active
